Laboratory results taken from ChEMBL document CHEMBL4419163, “Assays for identifying compounds that modulate bitter taste” (2014).

Experiments:
Type in all cases: functional, cell-based
[1] = target: T1, Taste receptor type 2 member 43 (Homo sapiens) (UniProt P59537); test: Agonist activity at human TAS2R43 expressed in HEK293T cells co-expressing Galpha15 assessed as increase in intracellular calcium level at 20 mM by Calcium-3 dye based fluorescence assay relative to control
T1 sequence (whole entry): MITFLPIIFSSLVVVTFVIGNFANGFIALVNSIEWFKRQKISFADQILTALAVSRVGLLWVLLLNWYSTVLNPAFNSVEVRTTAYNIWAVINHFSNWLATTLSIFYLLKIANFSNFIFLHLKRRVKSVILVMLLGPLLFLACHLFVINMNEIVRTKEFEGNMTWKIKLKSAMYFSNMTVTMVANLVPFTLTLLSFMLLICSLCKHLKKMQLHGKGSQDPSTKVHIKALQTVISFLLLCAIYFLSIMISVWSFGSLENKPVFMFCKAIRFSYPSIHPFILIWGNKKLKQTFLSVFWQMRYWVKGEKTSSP

[2] = target: T2, Taste receptor type 2 member 30 (Homo sapiens) (UniProt P59541); test: Agonist activity at human TAS2R47 expressed in HEK293T cells co-expressing Galpha15 assessed as increase in intracellular calcium level at 20 mM by Calcium-3 dye based fluorescence assay relative to control
T2 sequence (whole entry): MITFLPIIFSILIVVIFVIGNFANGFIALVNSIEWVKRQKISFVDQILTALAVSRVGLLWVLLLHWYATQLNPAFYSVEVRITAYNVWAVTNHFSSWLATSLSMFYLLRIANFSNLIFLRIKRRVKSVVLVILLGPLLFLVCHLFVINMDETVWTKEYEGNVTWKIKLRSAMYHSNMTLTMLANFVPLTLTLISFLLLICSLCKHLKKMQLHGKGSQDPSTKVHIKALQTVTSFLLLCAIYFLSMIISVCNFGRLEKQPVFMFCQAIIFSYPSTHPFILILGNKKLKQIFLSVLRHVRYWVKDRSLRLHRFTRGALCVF

[3] = target: T3, Taste receptor type 2 member 19 (Homo sapiens) (UniProt P59542); test: Agonist activity at human TAS2R48 expressed in HEK293T cells co-expressing Galpha15 assessed as increase in intracellular calcium level at 20 mM by Calcium-3 dye based fluorescence assay relative to control
T3 sequence (whole entry): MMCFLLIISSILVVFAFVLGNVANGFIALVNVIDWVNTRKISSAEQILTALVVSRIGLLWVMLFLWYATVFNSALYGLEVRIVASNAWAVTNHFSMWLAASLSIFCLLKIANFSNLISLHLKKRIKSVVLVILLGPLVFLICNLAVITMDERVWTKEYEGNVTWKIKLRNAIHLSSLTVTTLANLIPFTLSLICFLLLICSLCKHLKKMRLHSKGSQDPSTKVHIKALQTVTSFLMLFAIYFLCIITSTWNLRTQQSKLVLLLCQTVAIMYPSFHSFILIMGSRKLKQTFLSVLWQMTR

[4] = target: T4, Taste receptor type 2 member 14 (Homo sapiens) (UniProt Q9NYV8); test: Agonist activity at human TAS2R14 expressed in HEK293T cells co-expressing Galpha15 assessed as increase in intracellular calcium level at 20 mM by Calcium-3 dye based fluorescence assay relative to control
T4 sequence (whole entry): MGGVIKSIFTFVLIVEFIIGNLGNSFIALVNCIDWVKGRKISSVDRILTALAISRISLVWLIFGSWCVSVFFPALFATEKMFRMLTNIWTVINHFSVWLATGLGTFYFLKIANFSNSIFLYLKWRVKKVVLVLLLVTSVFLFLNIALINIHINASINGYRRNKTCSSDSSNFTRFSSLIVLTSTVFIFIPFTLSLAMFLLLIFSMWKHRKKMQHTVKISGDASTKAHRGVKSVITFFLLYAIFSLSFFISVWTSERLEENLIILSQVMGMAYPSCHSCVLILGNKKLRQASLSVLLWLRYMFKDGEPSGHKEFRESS

[5] = target: T5, Taste receptor type 2 member 41 (Homo sapiens) (UniProt P59536); test: Agonist activity at human TAS2R41 expressed in HEK293T cells co-expressing Galpha15 assessed as increase in intracellular calcium level at 20 mM by Calcium-3 dye based fluorescence assay relative to control
T5 sequence (whole entry): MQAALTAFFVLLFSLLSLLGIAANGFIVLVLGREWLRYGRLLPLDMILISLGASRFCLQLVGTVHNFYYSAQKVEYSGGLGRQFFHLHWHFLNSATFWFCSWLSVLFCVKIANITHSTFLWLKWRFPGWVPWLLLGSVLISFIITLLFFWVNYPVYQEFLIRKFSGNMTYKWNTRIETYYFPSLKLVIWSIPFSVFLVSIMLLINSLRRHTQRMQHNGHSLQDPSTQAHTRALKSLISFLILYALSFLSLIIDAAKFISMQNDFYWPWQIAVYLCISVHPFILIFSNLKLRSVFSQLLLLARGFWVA

[6] = target: T6, Taste receptor type 2 member 3 (Homo sapiens) (UniProt Q9NYW6); test: Agonist activity at human TAS2R3 expressed in HEK293T cells co-expressing Galpha15 assessed as increase in intracellular calcium level at 20 mM by Calcium-3 dye based fluorescence assay relative to control
T6 sequence (whole entry): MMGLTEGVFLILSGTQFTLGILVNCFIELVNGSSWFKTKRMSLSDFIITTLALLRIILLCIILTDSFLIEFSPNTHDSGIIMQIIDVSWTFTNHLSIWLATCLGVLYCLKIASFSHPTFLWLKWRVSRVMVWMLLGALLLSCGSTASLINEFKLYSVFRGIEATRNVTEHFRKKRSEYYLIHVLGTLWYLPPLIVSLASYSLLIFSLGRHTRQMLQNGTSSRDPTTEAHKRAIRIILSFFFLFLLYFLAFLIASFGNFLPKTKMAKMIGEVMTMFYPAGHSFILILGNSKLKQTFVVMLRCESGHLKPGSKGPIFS

[7] = target: T7, Taste receptor type 2 member 4 (Homo sapiens) (UniProt Q9NYW5); test: Agonist activity at human TAS2R4 expressed in HEK293T cells co-expressing Galpha15 assessed as increase in intracellular calcium level at 20 mM by Calcium-3 dye based fluorescence assay relative to control
T7 sequence (whole entry): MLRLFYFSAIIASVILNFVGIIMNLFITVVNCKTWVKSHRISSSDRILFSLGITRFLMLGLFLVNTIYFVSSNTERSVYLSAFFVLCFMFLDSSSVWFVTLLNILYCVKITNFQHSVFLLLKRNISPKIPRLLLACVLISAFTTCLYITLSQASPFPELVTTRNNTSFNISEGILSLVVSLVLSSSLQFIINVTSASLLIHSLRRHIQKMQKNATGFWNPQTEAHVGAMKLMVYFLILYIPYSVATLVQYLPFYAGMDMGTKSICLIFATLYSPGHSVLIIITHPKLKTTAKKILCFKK

Structure (SMILES)	Activity [1] [%]	Activity [2] [%]	Activity [3] [%]	Activity [4] [%]	Activity [5] [%]	Activity [6] [%]	Activity [7] [%]
CC1=CC(=O)NS(=O)(=O)O1	< 40	< 40	< 40	> 40	< 40	< 40	> 40
[Cl-].[K+] [POTASSIUM CHLORIDE]	< 40	< 40	< 40	> 40	< 40	< 40	> 40
CC(O)C(=O)[O-].[K+] (stereo unspecified)	< 40	< 40	< 40	> 40	< 40	< 40	> 40
